Target: T1, human CCR6 (Homo sapiens, UniProt P51684)
T1 construct: expressed in transfected cells; host or cells: HEK-293
T1 sequence (P51684 1-374): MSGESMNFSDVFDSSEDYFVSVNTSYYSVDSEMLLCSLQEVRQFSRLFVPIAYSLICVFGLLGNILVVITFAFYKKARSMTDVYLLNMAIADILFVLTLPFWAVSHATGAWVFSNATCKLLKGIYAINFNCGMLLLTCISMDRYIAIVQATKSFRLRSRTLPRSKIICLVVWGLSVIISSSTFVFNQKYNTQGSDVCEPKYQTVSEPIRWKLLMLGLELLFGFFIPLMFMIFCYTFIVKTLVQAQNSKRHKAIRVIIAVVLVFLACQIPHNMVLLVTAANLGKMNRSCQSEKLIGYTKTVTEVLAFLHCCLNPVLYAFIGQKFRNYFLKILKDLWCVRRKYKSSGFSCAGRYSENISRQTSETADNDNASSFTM
Experiment: FLIPR assay (inhibition of CCL20-induced calcium signal)
Type: cell-based
Conditions: HEK-293 cells expressing human CCR6; mean values where determined several times; read-out: FLIPR IC50
Summary of the method: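 IC50 values come from baseline-corrected peak calcium fluorescence after agonist. The agonist was CCL20 at 10 nM final, added to engineered human CCR6 HEK-293 cells following a 30-min, room-temperature, dark preincubation with serially diluted compound. Readings were taken in a fluorometric imaging plate reader.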

| IC50 [nM] | SMILES |
| --- | --- |
| 42.8 | Cc1cccc(C(C)(O)C#Cc2cncc([C@@](O)(c3ccc(C(C)C)cc3)C3(C)CN(C4CC4)C3)c2)n1 (stereo partly drawn) [Example 670, 4-{5-[(R)-(1-Cyclopropyl-3-methyl-azetidin-3-yl)-hydroxy-(4-isopropyl-phenyl)-methyl]-pyridin-3-yl}-2-(6-methyl-pyridin-2-yl)-but-3-yn-2-ol] |
| 172 | Cc1ncc(C2CC(=O)N(c3cncc([C@@](O)(c4ccc(C(C)C)cc4)C4(C)CN(C)C4)c3)C2)s1 (some centres unmarked) [Example 672] |
| 199 | Cc1ccc(C2CC(=O)N(c3cncc([C@@](O)(c4ccc(C(C)C)cc4)C4(C)CN(C)C4)c3)C2)cn1 (some centres unmarked) [Example 673] |
| 25.9 | CC(C)c1ccc([C@](O)(c2cncc(N3CC(c4cccc(C(C)C)n4)CC3=O)c2)C2(C)CN(C)C2)cc1 (some centres unmarked) [Example 674] |
| 227 | CC(C)c1ccc([C@](O)(c2cncc(N3CC(c4ccc(C(F)(F)F)nc4)CC3=O)c2)C2(C)CN(C)C2)cc1 (some centres unmarked) [Example 675] |
| 108 | CC(C)c1ccc([C@](O)(c2cncc(N3CC(c4cnn(C)c4)CC3=O)c2)C2(C)CN(C)C2)cc1 (some centres unmarked) [Example 676] |
| 156 | CC(C)c1ccc([C@](O)(c2cncc(N3CC(c4cnn(C(F)F)c4)CC3=O)c2)C2(C)CN(C)C2)cc1 (some centres unmarked) [Example 678] |
| 428 | CC(=O)N1CCC(C2CC(=O)N(c3cc([C@@](O)(c4ccc(C(C)C)cc4)C4(C)CN(C)C4)cnn3)C2)CC1 (stereo partly drawn) [Example 680, 4-(1-Acetyl-piperidin-4-yl)-1-{5-[(R)-(1,3-dimethyl-azetidin-3-yl)-hydroxy-(4-isopropyl-phenyl)-methyl]-pyridazin-3-yl}-pyrrolidin-2-one] |
| 281 | CC(C)c1ccc([C@](O)(c2cnnc(N3CC4OCCC4C3=O)c2)C2(C)CN(C)C2)cc1 (stereo partly drawn) [Example 681, 5-{5-[(R)-(1,3-Dimethyl-azetidin-3-yl)-hydroxy-(4-isopropyl-phenyl)-methyl]-pyridazin-3-yl}-hexahydro-furo[2,3-c]pyrrol-4-one] |
| 7.98 | CC(C)c1ccc([C@](O)(c2cnnc(N3CC(c4cccc(C(C)C)n4)CC3=O)c2)C2(C)CN(C)C2)cc1 (stereo partly drawn) [Example 682, 1-{5-[(R)-(1,3-Dimethyl-azetidin-3-yl)-hydroxy-(4-isopropyl-phenyl)-methyl]-pyridazin-3-yl}-4-(6-isopropyl-pyridin-2-yl)-pyrrolidin-2-one] |
| 105 | CC(=O)N1CCc2nc(-c3cncc([C@@](O)(c4ccc(C(C)C)cc4)C4(C)CN(C)C4)c3)ncc2C1 [Example 683, 1-(2-{5-[(R)-(1,3-Dimethyl-azetidin-3-yl)-hydroxy-(4-isopropyl-phenyl)-methyl]-pyridin-3-yl}-7,8-dihydro-5H-pyrido[4,3-d]pyrimidin-6-yl)-ethanone] |
| 125 | CC(=O)N1CCc2nc(-c3cncc([C@@](O)(c4ccc(C(C)C)cc4)C4(C)CN(C)C4)c3)ccc2C1 [Example 684, 1-(2-{5-[(R)-(1,3-Dimethyl-azetidin-3-yl)-hydroxy-(4-isopropyl-phenyl)-methyl]-pyridin-3-yl}-7,8-dihydro-5H-[1,6]naphthyridin-6-yl)-ethanone] |
| 242 | CC(=O)N1CCC(c2cnc(-c3cncc([C@@](O)(c4ccc(C(C)C)cc4)C4(C)CN(C)C4)c3)nc2)CC1 [Example 685, 1-[4-(2-{5-[(R)-(1,3-Dimethyl-azetidin-3-yl)-hydroxy-(4-isopropyl-phenyl)-methyl]-pyridin-3-yl}-pyrimidin-5-yl)-piperidin-1-yl]-ethanone] |
| 145 | CC(=O)N1CCC(c2ccnc(-c3cncc([C@@](O)(c4ccc(C(C)C)cc4)C4(C)CN(C)C4)c3)n2)CC1 [Example 686, 1-[4-(2-{5-[(R)-(1,3-Dimethyl-azetidin-3-yl)-hydroxy-(4-isopropyl-phenyl)-methyl]-pyridin-3-yl}-pyrimidin-4-yl)-piperidin-1-yl]-ethanone] |

— patent US12617773B2, “Azetidin-3-ylmethanol derivatives as CCR6 receptor modulators” (Idorsia Pharmaceuticals Ltd, priority 2020, dated 2026)
